Assay results reported in patent US20110230481A2, “DERIVATIVES OF TETRABROMOBENZIMIDAZOLE, A PROCESS FOR THE PREPARATION THEREOF, A PHARMACEUTICAL COMPOSITION COMPRISING THE SAME, A METHOD OF USING THE SAME, A METHOD FOR MODULATING OR REGULATING SERINE/THREONINE KINASES, AND SERINE/THREONINE KINASES MODULATING AGENT” (SELVITA S.A., priority 2009, published 2011).

How the values were obtained:
[1] = system: human breast adenocarcinoma MCF7 cells; experiment: Growth inhibition test (MTS); format: cell-based; details: MCF-7; 72 hours
Method: (§1) Two thousand cells of human breast adenocarcinoma MCF7 were inoculated into each well of a 96-well microplate (manufactured by Corning Corp.), and using DMEM medium (culture medium) containing 10% fetal calf serum (FCS). The same day, a dimethyl sulfoxide (DMSO) solution of each test compound prepared in a concentration of 10 mmol/L was further diluted with DMSO to the desired concentrations (0.1, 0.5, 1, 2.5, 5 and 10 micromol/L), and the diluted solution was added to each well. The individual wells were further cultured in 5% carbon dioxide at 37° C. for 72 hours. After completion of the culture, 10 μl MTS (3-(4,5-Dimethyl-2-thiazolyl)-5-(carboxymethoxyphenyl)-2-(4-sulfophenyl)-2H-tetrazolium, inner salt assay (CellTiter96® AQueous One Solution Cell Proliferation Assay, Promega) was added to each well, and culturing was performed in 5% carbon dioxide at 37° C. for 2 hours. Using a microplate spectrophotometer (Synergy 2 multi-mode microplate reader (BioTek)), the absorbance of each well was measured at 490 nm. The value for cells not incorporated with a test compound was designated as 100%. By comparing these values with the absorbance difference obtained at the well in which each test compound was added, the cell viability (% viability) after treatment with the test compound was calculated.

LOK = target: T1, LOK (Homo sapiens, UniProt O94804); experiment: KINOMEscan Max; format: binding; details: 1 μM
T1 construct: purchased Ambit Kinomescan (contract panel)
T1 sequence (O94804 whole entry): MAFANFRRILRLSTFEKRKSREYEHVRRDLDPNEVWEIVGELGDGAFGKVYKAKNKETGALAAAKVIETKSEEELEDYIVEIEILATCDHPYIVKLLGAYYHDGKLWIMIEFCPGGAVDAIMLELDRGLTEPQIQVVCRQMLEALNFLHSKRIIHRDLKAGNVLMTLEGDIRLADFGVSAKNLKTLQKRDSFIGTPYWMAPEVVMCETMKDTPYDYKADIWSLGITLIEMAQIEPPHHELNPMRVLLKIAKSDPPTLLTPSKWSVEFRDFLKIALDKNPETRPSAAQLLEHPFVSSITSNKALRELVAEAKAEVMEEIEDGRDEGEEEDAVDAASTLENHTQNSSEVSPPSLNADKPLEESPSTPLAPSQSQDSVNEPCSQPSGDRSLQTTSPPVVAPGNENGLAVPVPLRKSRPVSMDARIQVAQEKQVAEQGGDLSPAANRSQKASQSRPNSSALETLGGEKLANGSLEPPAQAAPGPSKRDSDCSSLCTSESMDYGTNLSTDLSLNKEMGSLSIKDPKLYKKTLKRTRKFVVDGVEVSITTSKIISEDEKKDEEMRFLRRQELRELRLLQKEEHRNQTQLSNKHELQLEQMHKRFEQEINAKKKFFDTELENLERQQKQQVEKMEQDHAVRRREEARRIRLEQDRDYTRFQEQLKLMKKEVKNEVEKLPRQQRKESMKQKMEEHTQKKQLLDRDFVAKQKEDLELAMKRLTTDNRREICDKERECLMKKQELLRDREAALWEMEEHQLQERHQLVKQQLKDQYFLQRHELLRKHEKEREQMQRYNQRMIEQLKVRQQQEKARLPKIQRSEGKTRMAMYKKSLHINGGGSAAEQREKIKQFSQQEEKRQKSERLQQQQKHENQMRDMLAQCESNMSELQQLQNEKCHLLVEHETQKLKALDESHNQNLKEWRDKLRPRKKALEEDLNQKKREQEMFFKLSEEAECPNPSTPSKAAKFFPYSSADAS
Method: (§2) Kinase panel profiling was performed at Ambit Kinomescan (http://www.ambitbio.com/technology/) using the “KINOMEscan™ Max” assay platform, a high-throughput method for screening small molecule compounds against large numbers of human kinases. KINOMEscan™ is based on a competition binding assay that quantitatively measures the ability of a compound to compete with an immobilized, active-site directed ligand. The assay is performed by combining three components: DNA-tagged kinase; immobilized ligand; and a test compound. The ability of the test compound to compete with the immobilized ligand is measured via quantitative PCR of the DNA tag. For a description of Ambit's assay protocol, see Fabian et al. A small molecule-kinase interaction map for clinical kinase inhibitors. Nat. Biotechnol. 23, 329-336 (2005).

EPHB4 = target: T2, EPHB4 (Homo sapiens, UniProt P54760); experiment: KINOMEscan Max; format: binding
T2 construct: purchased Ambit (KINOMEscan Max panel service)
T2 sequence (P54760 16-987): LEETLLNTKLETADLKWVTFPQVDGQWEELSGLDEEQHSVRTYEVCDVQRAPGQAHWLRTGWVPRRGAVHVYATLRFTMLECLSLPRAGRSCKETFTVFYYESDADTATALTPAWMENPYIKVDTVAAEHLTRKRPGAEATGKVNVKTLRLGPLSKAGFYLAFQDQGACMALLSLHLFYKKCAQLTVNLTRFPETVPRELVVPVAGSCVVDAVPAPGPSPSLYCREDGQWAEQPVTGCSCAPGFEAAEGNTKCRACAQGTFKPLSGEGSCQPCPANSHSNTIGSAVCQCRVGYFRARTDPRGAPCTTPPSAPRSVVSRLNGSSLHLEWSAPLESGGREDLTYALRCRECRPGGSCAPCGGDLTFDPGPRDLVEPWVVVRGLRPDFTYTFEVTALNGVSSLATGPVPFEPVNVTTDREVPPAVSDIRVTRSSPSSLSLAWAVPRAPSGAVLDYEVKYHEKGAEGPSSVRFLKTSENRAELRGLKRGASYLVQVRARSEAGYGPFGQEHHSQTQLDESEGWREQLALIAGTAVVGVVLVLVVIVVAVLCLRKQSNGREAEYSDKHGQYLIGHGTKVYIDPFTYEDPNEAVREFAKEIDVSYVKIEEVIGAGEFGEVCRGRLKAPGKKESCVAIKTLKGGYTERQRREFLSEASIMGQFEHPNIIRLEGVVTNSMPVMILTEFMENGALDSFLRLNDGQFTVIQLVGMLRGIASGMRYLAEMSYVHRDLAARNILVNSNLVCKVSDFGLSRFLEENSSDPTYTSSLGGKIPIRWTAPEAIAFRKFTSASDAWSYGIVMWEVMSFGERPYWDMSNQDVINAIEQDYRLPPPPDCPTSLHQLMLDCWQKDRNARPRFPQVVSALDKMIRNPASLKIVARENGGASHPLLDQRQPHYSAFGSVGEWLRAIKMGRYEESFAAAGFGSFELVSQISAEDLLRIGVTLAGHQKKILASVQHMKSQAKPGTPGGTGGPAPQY
Method: as §2

MARK4 = target: T3, MARK4 (Homo sapiens, UniProt Q96L34); experiment: KINOMEscan Max; format: binding; details: 1 μM
T3 construct: purchased Ambit (KINOMEscan Max service)
T3 sequence (Q96L34 whole entry): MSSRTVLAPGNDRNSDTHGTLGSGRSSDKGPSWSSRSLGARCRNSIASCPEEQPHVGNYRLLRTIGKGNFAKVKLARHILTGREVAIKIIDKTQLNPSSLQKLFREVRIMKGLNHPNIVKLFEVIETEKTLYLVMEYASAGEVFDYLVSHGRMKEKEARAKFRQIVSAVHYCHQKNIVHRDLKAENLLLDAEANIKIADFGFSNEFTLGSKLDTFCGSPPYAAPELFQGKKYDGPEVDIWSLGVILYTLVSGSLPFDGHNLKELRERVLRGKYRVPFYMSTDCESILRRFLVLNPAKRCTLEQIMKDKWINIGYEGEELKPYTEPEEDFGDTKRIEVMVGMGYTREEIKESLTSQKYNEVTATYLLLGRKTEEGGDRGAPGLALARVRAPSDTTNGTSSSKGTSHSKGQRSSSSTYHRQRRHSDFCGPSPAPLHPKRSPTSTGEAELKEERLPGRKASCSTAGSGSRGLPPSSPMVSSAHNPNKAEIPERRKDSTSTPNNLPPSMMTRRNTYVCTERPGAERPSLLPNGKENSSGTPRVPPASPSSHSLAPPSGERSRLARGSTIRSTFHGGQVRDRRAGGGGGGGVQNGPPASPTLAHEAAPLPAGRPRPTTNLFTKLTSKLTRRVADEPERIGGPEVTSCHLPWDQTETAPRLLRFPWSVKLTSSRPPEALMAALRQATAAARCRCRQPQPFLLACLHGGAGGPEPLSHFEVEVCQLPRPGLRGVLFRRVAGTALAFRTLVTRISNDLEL
Method: as §2

EPHA5 = target: T4, EPHA5 (Homo sapiens, UniProt P54756); experiment: KINOMEscan Max; format: binding; details: 1 μM
T4 construct: purchased Ambit (KINOMEscan Max panel service)
T4 sequence (P54756 25-1037): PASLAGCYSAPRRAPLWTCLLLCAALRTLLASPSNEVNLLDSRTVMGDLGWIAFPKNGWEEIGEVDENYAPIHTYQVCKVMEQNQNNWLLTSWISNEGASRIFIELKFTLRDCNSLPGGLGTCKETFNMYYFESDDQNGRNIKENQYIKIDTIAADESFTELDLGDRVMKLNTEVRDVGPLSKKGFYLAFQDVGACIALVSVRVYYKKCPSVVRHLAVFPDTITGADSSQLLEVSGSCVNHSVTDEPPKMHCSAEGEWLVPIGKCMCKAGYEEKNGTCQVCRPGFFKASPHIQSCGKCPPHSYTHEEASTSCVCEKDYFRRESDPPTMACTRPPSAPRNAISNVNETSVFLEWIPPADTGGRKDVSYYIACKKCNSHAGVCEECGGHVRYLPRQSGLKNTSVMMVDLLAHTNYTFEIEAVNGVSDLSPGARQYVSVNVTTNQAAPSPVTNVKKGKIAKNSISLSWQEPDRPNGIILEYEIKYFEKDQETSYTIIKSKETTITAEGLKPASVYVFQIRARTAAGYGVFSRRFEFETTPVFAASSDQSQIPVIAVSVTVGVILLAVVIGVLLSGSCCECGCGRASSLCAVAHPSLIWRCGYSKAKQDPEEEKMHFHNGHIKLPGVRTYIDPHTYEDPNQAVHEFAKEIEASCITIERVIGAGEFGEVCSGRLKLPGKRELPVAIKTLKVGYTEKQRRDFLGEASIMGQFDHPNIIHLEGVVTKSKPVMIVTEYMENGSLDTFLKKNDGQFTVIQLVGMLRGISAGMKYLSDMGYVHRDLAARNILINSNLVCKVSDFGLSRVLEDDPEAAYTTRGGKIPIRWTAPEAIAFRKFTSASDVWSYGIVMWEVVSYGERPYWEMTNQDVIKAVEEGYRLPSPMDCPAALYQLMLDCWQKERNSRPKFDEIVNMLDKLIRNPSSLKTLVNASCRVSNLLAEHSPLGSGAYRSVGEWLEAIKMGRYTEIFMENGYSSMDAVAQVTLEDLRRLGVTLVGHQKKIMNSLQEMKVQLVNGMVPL
Method: as §2

[2] = target: T5, RPS6KA4(Kin.Dom.2-C-terminal) (Homo sapiens, UniProt O75676); experiment: KINOMEscan Max; format: binding
T5 construct: RPS6KA4(Kin.Dom.2-C-terminal); purchased Ambit Kinomescan (contract screening)
T5 sequence (O75676 411-674 limits assumed): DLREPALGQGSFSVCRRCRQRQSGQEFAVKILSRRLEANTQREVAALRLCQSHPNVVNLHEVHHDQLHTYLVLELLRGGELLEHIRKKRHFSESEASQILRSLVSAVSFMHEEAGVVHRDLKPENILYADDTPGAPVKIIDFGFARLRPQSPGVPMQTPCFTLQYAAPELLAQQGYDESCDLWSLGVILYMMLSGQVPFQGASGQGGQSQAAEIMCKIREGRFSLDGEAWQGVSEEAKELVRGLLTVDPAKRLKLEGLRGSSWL
Method: as §2

DRAK1 = DRAK1 (Homo sapiens, UniProt Q9UEE5); experiment: KINOMEscan Max; format: binding
Chain of DRAK1 (Q9UEE5 whole entry): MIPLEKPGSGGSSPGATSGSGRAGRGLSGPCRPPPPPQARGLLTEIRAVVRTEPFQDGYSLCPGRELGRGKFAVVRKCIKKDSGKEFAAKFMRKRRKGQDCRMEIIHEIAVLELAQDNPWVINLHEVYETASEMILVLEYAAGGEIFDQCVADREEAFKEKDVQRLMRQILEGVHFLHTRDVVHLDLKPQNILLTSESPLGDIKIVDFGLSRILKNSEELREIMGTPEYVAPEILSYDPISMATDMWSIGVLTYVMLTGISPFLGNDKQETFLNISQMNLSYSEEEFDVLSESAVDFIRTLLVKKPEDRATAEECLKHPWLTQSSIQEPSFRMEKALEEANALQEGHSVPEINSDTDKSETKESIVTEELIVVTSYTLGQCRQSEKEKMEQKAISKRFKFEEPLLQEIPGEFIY
Method: as §2

neoplastic cell lines = experiment: MTS cytotoxicity, panel of cancer cell lines; format: cell-based, human; details: majority of the tested cancer cell lines; read-out: general cytotoxic activity (compound concentration that results in death of 50% of the cell)
Method: as §1, with “Ten” for “Two”, “chronic myelocytic leukemia K562” for “breast adenocarcinoma MCF7”, “Corp.)” for “Corp.), and”, “Iscove's MDM” for “DMEM”
as §1, with “prostate” for “breast”, “PC3” for “MCF7”, “F12K (Ham's F12:[…] 1:1)” for “DMEM”, “The same day, a dimethyl sulfoxide (DMSO) solution of each test compound prepared in a concentration of 10 mmol/L was further diluted with DMSO to the desired concentrations (0.1, 0.5, 1, 2.5, 5 and 10 micromol/L), and the diluted solution was added to each well. The individual wells were further cultured in 5% carbon dioxide at 37° C. for 72 hours.” left out
as §1, with “prostate carcinoma DU145” for “breast adenocarcinoma MCF7”, “The same day, a dimethyl sulfoxide (DMSO) solution of each test compound prepared in a concentration of 10 mmol/L was further diluted with DMSO to the desired concentrations (0.1, 0.5, 1, 2.5, 5 and 10 micromol/L), and the diluted solution was added to each well. The individual wells were further cultured in 5% carbon dioxide at 37° C. for 72 hours.” left out, “innersalt” for “inner salt”, “calculated. […]” for “calculated.”

For `NCCCNc1nc2c(Br)c(Br)c(Br)c(Br)c2[nH]1` [Compound 11, N-(3-aminopropyl)-4,5,6,7-tetrabromo-1H-benzo[d]imidazol-2-amine], the “Cytotoxicity in MTS assay (ED50)” value [1] was 5.34 µM, the “% binding” value (LOK) was 100% and the remaining binding at 1 µM (EPHB4) was 100%. The “% binding” value (MARK4) was 84%, the “% binding” value (EPHA5) was 100% and the remaining binding at 1 µM [2] was 97%. The remaining binding at 1 µM (DRAK1) was 75%.

In the case of `Brc1c(Br)c(Br)c2[nH]c(NCCN3CCOCC3)nc2c1Br` [Compound 16, 4,5,6,7-tetrabromo-N-(2-morpholinoethyl)-1H-benzo[d]imidazol-2-amine], the “Cytotoxicity in MTS assay (ED50)” value [1] is reported as over 10 µM.

In the case of `CN1CCN(c2nc3c(Br)c(Br)c(Br)c(Br)c3[nH]2)CC1` [Compound 21, 4,5,6,7-tetrabromo-2-(4-methylpiperazin-1-yl)-1H-benzo[d]imidazole], the “Cytotoxicity in MTS assay (ED50)” value [1] is reported as over 10 µM.

For `Brc1c(Br)c(Br)c2c(Br)n[nH]c2c1Br` [Compound K64, reference compound], the EC50 (neoplastic cell lines) was over 10 µM.

`CN(C)c1nc2c(Br)c(Br)c(Br)c(Br)c2n1CC(=O)O` [Compound K66, reference compound] was tested, and the EC50 (neoplastic cell lines) was over 10 µM.

With `CN(C)c1nc2c(Br)c(Br)c(Br)c(Br)c2[nH]1` [DMAT, reference compound] the EC50 (neoplastic cell lines) was over 10 µM and the “Cytotoxicity in MTS assay (ED50)” value [1] was over 10 µM.

For `Brc1c(Br)c(Br)c2[nH]nnc2c1Br` [TBB, reference compound], the EC50 (neoplastic cell lines) was over 10 µM.

`Brc1c(Br)c(Br)c2[nH]cnc2c1Br` [TBI, reference compound] was tested, and the EC50 (neoplastic cell lines) was over 10 µM.
